Laboratory results published in US5468772A, “Tripterinin compound and method” (Pharmagenesis, Inc., priority 1993, dated 1995).

Assays:
HIV = conditions: cited from earlier work
[1] = system: human peripheral blood lymphocytes; experiment: Suppression of human PBL proliferation in vitro ([3H]thymidine incorporation), with or without anti-CD3 (X-35); type: cell-based
Procedure: One measure of immunosuppression is suppression of stimulated peripheral blood lymphocyte (PBL) proliferation in vitro. In the assay detailed in Example 3, PBLs were activated in vitro by addition of anti-CD3 monoclonal antibody (X-35 antibody). At the same time, purified tripterinin or vehicle (control) was added to each culture, at selected concentrations. After 72 hours incubation, tritiated thymidine was added to the culture medium, and thymidine incorporation into DNA was assayed, as a measure of DNA synthesis associated with cell proliferation.
The ability of tripterifordin to inhibit anti-CD3 stimulated PBL proliferation was assayed at concentrations of 0, 0.78, 3.13, and 12.5 μg/ml, with the results shown in FIG. 9.
Human peripheral blood lymphocytes were prepared using an established method (Boyum). Human blood buffy coat samples, approximately 25 ml/donor, were obtained from the Stanford University Medical Center Blood Bank. Using sterile technique, the buffy coat samples were gently resuspended in a total volume of 100 ml with the addition of calcium and magnesium free Hank's balanced salt solution (HBSS, obtained from Gibco) at room temperature. A volume of 25 ml of the cell suspension was then layered onto 15 ml of Ficoll-Pacque (Pharmacia LKB Biotechnology, Inc.) in a 50 ml conical centrifuge tube. Tubes were centrifuged in a Beckman GPR tabletop centrifuge (GH-3.7 Rotor) at 400×g for 30 minutes at 15° C.
Following centrifugation, the PBL suspensions at the interfaces were transferred to new 50 ml tubes using a transfer pipette, and the PBL samples were resuspended in a total volume of 45 ml HBSS and centrifuged at 354×g for 10 minutes at 15° C. Supernatants were discarded. PBL's were resuspended in 10 ml HBSS, combined to make a total of 45 ml HBSS, and centrifuged at 265×g for 10 minutes at 15° C. The cell pellets were suspended in 10 ml of X-Vivo tissue culture medium (Bio Whittaker) and counted using a hemocytometer. Tissue culture medium was then added to achieve a final cell concentration of 1× 10^6 cells/ml. Additional dilutions were carried out as required for each assay.
Assays were carried out in 96 well sterile tissue culture plates (Costar 3790 and Costar 3595). A volume of 150 μl of X-Vivo medium or sterile distilled water was added to the outer wells of the plate to prevent evaporation of medium within the experimental wells. PBL's from 2 different donors were used in parallel in all experiments. A volume of 100 μl PBL suspension was added to each well using a multichannel pipette. Plates were incubated in an atmosphere of 93% air/7% CO2 in a tissue culture incubator at 37° C. X-35 (AMAC #0178), an anti CD-3 surface antigen antibody, was used at 5 ng/ml to stimulate PBL proliferation.
Tripterinin or tripterifordin was dissolved in ethanol (10 mg/ml) and then diluted in sterile X-Vivo tissue culture medium to obtain the final concentrations required for each experiment.
Four hours prior to the conclusion of incubation, 50 μl of X-Vivo tissue culture medium containing 8 μCi/ml [^3 H]Thymidine (Amersham, 49 Ci/mmol) was added to each tissue culture well. After 72 hours total incubation time, the cells were removed from the tissue culture wells and applied to filter paper using a cell harvester (Brandel Model MB-24). The filter paper was dried for one hour under a heat lamp and then cut into 1 cm discs. Each sample was placed in a scintillation vial containing 2 ml of scintillation fluid (Biosafe, Research Products International Corp.). Samples were counted in a Beckman LS 6000SC scintillation counter.

mouse thymocytes = experiment: Inhibition of IL-1 action: IL-1 stimulated mouse thymocyte proliferation in presence of PHA; type: cell-based; conditions: tripterifordin 3.13 μg/ml, about 3 μg/ml, tripterinin 0.02 to 1 μg/ml
Procedure: The ability of tripterinin and tripterifordin to suppress the cell-proliferative effect of IL-1 in mouse thymocytes, an index of IL-1 action (O'Gara), was also examined. In this study, mouse thymocytes in culture were stimulated with IL-1 in the presence of phytohemagglutinin (PHA) and increasing concentrations of purified tripterinin or tripterifordin. The cells were cultured for 72 hours, and during the last four hours, incubated with tritiated thymidine. DNA synthesis was assessed by measurement of radiolabeled thymidine incorporation.
Mouse thymocytes were prepared, and the action of IL-1, which stimulates thymocyte proliferation, was measured using standard techniques (O'Gara). Three to six week old C3H/HeN mice were obtained from Simonsen Laboratories, Gilroy, Calif. and sacrificed by CO2 inhalation. Thymi were removed, separated from adherent non-thymic tissue, homogenized in Hank's balanced salt solution (Gibco) using a glass homogenizer, and centrifuged at 180×g for 10 minutes at 15° C. Following an additional wash in HBSS, the thymocytes were resuspended in RPMI 1640 tissue culture medium (Gibco) containing 50 μM 2-mercaptoethanol (Fisher), 2 mM glutamine (Gibco), 1 mM sodium pyruvate, non-essential amino acids, penicillin (100 U/ml) streptomycin (100 μg/ml), 10% heat inactivated fetal bovine serum and Phytohemagglutinin (PHA, Pharmacia, final concentration 10 μg/ml). Cells were cultured in round-bottom 96 well microtiter tissue culture plates, 6×10^5 cells per well in a volume of 100 μl. Tripterinin or tripterifordin was diluted in tissue culture medium and added to the wells in the presence and absence of IL-1 (recombinant human IL-1, R&D Systems catalog #201-LB, 0.1 ng/ml). Total volume was 150 μl per well.
Plates were incubated for 72 hours (95% air/5% CO2, 37° C.). During the last four hours of incubation, [^3 H]-thymidine (Amersham, […]) was added (0.5 μCi per well). Cells were harvested onto Whatman 934-AH glass microfiber filters and counted in a Beckman LS 6000 scintillation counter. Results were expressed as counts per minute per well.

TNFα = conditions: RA patients, long term administration; cited from earlier work
IL-1 = conditions: RA patients, long term administration; cited from earlier work

SMILES | anti-HIV activity (HIV) | inhibition of anti-CD3 stimulated PBL proliferation ([1]; highest concentration tested, 12.5 μg/ml, FIG. 9) | inhibitory effect on PBL proliferation ([1]; stimulated and unstimulated (tripterinin), FIG. 9 (tripterifordin)) | inhibition of IL-1 stimulated thymocyte proliferation (mouse thymocytes) | inhibition of IL-1 stimulated thymocyte proliferation (mouse thymocytes; listed as Tripterifordin) | serum level of TNFα (TNFα) | serum level of IL-1 (IL-1)
C[C@@]1(O)C[C@@]23CC[C@H]4[C@@]5(CCC[C@]4(C)C(=O)OC5)[C@@H]2CC[C@H]1C3 [tripterifordin, reference compound] | anti-HIV principle | failed to significantly inhibit PBL proliferation | little or no inhibitory effect | little or no inhibitory effect | failed to inhibit |  | 
O=C(O)c1cc(/N=N/c2ccc(S(=O)(=O)Nc3ccccn3)cc2)ccc1O [sulfasalazine] |  |  |  |  |  | decline | decline
